Measured values reported in patent US6531485B2, “Prostaglandin agonists” (priority 1997, dated 2003).

Assays:
[1] = test system: 293S cells transfected with EP2; test: Kidney regeneration assay: BMP-7 expression by Northern blot in EP2 293S cells; assay type: cell-based, human; details: 10^-6M, RNA at 8, 16 and 24 hours
Description: (§1) Methods: 293S and EP2 293S cells are grown in Dulbecco's Modified Egale medium (DMEM, Gibco, BRL; Gaithersburg, Md.). […] Cells are harvested and RNA is extracted at 8, 16 and 24 hours. Northern blot analysis of total […] is carried out by probing the blots with ^32P-labeled BMP-7 probe. The blots are normalized for RNA loading by hybridization with ^32P-labeled 18s ribosomal RNA probe. […] Given the known role of BMP-7 in kidney regeneration and the ability of an prostaglandin agonist to induce BMP-7 expression in 293S kidney cells in a time and receptor specific manner indicates a role for prostaglandin agonist in kidney regeneration.

wild type 293S cells = test: Kidney regeneration assay: BMP-7 expression by Northern blot in wild type 293S cells; assay type: cell-based, human; details: parental 293S cell line, 10^-6M, RNA at 8, 16 and 24 hours
Description: as §1

For `CCCCC[C@H](O)/C=C/[C@H]1[C@H](O)CC(=O)[C@@H]1C/C=C\CCCC(=O)O` [PGE2, Prostaglandin E2], the “induction of expression of BMP-7” value [1] was “induce the expression of BMP-7 in the EP2 293S cells in a time dependent manner” and the “induction of expression of BMP-7” value (wild type 293S cells) was “generally not observed”.
